Patent US20250051347A1, “BIFUNCTIONAL CHIMERIC HETEROCYCLIC COMPOUND AND USE THEREOF AS ANDROGEN RECEPTOR DEGRADER” (Hinova Pharmaceuticals, Inc., priority 2021, published 2025)

Each molecule was assayed against T1, androgen receptor (AR) splicing variant AR-v7 (Homo sapiens, UniProt P10275) (assay: Degradation activity on androgen receptor splicing variant AR-v7 in 22RV1 cells (ELISA)). Settings: AR-v7 degradation in 22RV1 cells, 48 h, class symbols.
T1 construct: The degradation activity of compounds on AR-v7 in 22RV1 cells; host or cells: 22RV1 cells
T1 sequence (P10275 1-644 isoform P10275-3): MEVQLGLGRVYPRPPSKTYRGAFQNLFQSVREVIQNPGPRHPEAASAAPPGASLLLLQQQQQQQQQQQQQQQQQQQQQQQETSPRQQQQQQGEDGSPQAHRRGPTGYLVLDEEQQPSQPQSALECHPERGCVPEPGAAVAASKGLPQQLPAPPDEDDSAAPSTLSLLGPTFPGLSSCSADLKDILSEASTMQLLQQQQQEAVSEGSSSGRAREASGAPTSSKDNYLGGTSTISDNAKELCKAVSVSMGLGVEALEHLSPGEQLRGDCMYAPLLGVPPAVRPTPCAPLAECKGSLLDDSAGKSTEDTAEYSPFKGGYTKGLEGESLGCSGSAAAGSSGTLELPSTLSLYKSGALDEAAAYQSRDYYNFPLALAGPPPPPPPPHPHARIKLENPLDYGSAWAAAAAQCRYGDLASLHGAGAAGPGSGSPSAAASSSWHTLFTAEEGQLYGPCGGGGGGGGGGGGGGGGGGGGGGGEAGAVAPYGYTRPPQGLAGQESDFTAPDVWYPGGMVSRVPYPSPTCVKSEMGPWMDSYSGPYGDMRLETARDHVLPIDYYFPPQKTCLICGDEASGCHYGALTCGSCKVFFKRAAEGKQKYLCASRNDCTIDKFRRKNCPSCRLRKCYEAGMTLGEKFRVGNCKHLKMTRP
Type: cell-based

| SMILES | DC50 [nM] |
| --- | --- |
| Cc1nc(COc2ccc(C(C)(C)c3ccc(OCCCNc4cccc5c4C(=O)N(C4CCC(=O)NC4=O)C5=O)cc3)cc2)cs1 (stereo not drawn) [Example 224, 2-(2,6-dioxopiperidin-3-yl)-4-((3-(4-(2-(4-((2-methylthiazol-4-yl)methoxy)phenyl)propan-2-yl)phenoxy)propyl)amino)isoindolin-1,3-dione] | 101 to 1000 |
| Cc1cnc(N2CC3(COC3)C2)nc1COc1ccc(C(C)(C)c2ccc(O[C@H]3C[C@@H](Nc4ccc5c(c4)C(=O)N(C4CCC(=O)NC4=O)C5=O)C3)cc2)cc1 (stereo partly drawn) [Example 203] | 11 to 100 |
| CC(C)(c1ccc(OCc2ccnc(N3CCOCC3)n2)cc1)c1ccc(OC2CC(Nc3ccc4c(c3)C(=O)N(C3CCC(=O)NC3=O)C4=O)C2)cc1 (stereo not drawn) [Example 394] | 11 to 100 |
| CN[C@H]1CCCN(c2nccc(COc3ccc(C(C)(C)c4ccc(O[C@H]5C[C@@H](Nc6ccc7c(c6)C(=O)N(C6CCC(=O)NC6=O)C7=O)C5)cc4)cc3)n2)C1 (stereo partly drawn) [Example 403] | 11 to 100 |
| CC(C)(c1ccc(OCc2ccnc(N3CC4(COC4)C3)n2)cc1)c1ccc(OC2CCC[C@@H](Nc3ccc4c(c3)C(=O)N(C3CCC(=O)NC3=O)C4=O)C2)cc1 (stereo in doubt) [Example 493, 5-((3-(4-(2-(4-((2-(2-oxa-6-azaspiro[3.3]heptan-6-yl)pyrimidin-4-yl)methoxy)phenyl)propan-2-yl)phenoxy)cyclohexyl)amino)-2-(2,6-dioxopiperidin-3-yl)isoindolin-1,3-dione] | 101 to 1000 |
| CC(C)(c1ccc(OCCCNc2ccc3c(c2)C(=O)N(C2CCC(=O)NC2=O)C3=O)cc1)c1ccc(OCc2ccnc(S(C)(=O)=O)n2)cc1 (stereo not drawn) [Example 67, 2-(2,6-dioxopiperidin-3-yl)-5-((3-(4-(2-(4-(4-(2-(methanesulfonyl)pyrimidin-4-yl)methoxy)phenyl)propan-2-yl)phenoxy)propyl)amino)isoindolin-1,3-dione] | 1000 to 5000 |
| CN1CCN(c2nccc(COc3ccc(C(C)(C)c4ccc(OCCCNc5cccc6c5C(=O)N(C5CCC(=O)NC5=O)C6=O)cc4)cc3)n2)CC1 (stereo not drawn) [Example 60] | 101 to 1000 |
| CC(C)(c1ccc(OCc2ccnc(N3CCC4(CC3)COC4)n2)cc1)c1ccc(OC2CC(Nc3ccc4c(c3)C(=O)N(C3CCC(=O)NC3=O)C4=O)C2)cc1 (stereo not drawn) [Example 78, 5-((3-(4-(2-(4-((2-(2-oxa-7-azaspiro[3.5]nonan-7-yl)pyrimidin-4-yl)methoxy)phenyl)propan-2-yl)phenoxy)cyclobutyl)amino)-2-(2,6-dioxopiperidin-3-yl)isoindolin-1,3-dione] | 11 to 100 |
| Cc1nc(-c2cc(Oc3ccc(C(C)(C)c4ccc(O[C@H]5C[C@@H](Nc6ccc7c(c6)C(=O)N(C6CCC(=O)NC6=O)C7=O)C5)cc4)cc3)ccn2)no1 (stereo partly drawn) [Example 174, 2-(2,6-dioxopyridin-3-yl)-5-(((1s,3s)-3-(4-(2-(4-((2-(5-methyl-1,2,4-oxadiazol-3-yl)pyridin-4-yl)oxy)phenyl)propan-2-yl)phenoxy)cyclobutyl)amino) isoindolin-1,3-dione] | 11 to 100 |
| CN(C)[C@@H]1CCCN(c2nccc(COc3ccc(C(C)(C)c4ccc(O[C@H]5C[C@@H](Nc6ccc7c(c6)C(=O)N(C6CCC(=O)NC6=O)C7=O)C5)cc4)cc3)n2)C1 (stereo partly drawn) [Example 402] | 11 to 100 |
| Cc1nc(-c2cnc(Oc3ccc(C(C)(C)c4ccc(O[C@H]5C[C@@H](Nc6ccc7c(c6)C(=O)N(C6CCC(=O)NC6=O)C7=O)C5)cc4)cc3)nc2)no1 (stereo partly drawn) [Example 336] | 11 to 100 |
| Cc1nc(-c2cnc(Oc3ccc(C(C)(C)c4ccc(O[C@H]5C[C@H](Nc6ccc7c(c6)C(=O)N(C6CCC(=O)NC6=O)C7=O)C5)cc4)cc3)nc2)no1 (stereo partly drawn) [Example 327] | 11 to 100 |
| CC(C)(c1ccc(Oc2ccc(-n3ccnn3)nn2)cc1)c1ccc(O[C@H]2C[C@H](Nc3ccc4c(c3)C(=O)N(C3CCC(=O)NC3=O)C4=O)C2)cc1 (stereo partly drawn) [Example 325] | 11 to 100 |
| CN1CCN(c2ncc3c(n2)CN(c2ccc(C(C)(C)c4ccc(O[C@H]5C[C@@H](Nc6ccc7c(c6)C(=O)N(C6CCC(=O)NC6=O)C7=O)C5)cc4)cc2)CC3)CC1 (stereo partly drawn) [Example 191] | 11 to 100 |
| CC(C)(c1ccc(Oc2cnc(-n3nccn3)c(Cl)c2)cc1)c1ccc(O[C@H]2C[C@H](Nc3ccc4c(c3)C(=O)N(C3CCC(=O)NC3=O)C4=O)C2)cc1 (stereo partly drawn) [Example 515] | 11 to 100 |
| Cc1nccc(Oc2ccc(C(C)(C)c3ccc(O[C@H]4C[C@@H](Nc5ccc6c(c5)C(=O)N(C5CCC(=O)NC5=O)C6=O)C4)cc3)cc2)n1 (stereo partly drawn) [Example 198] | 11 to 100 |
| O=C1CCC(N2C(=O)c3ccc(N[C@H]4C[C@H](Oc5ccc(C6(c7ccc(Oc8ccc(-n9ccnn9)nn8)cc7)CC6)cc5)C4)cc3C2=O)C(=O)N1 (stereo partly drawn) [Example 375, 5-(((1r,3r)-3-(4-(1-(4-((6-(1H-1,2,3-triazole-1-yl)pyridazine-3-yl)oxy)phenyl)cyclopropyl)phenoxy)cyclobutyl)amino)-2-(2,6-dioxopiperidin-3-yl)isoindolin-1,3-dione] | 11 to 100 |
| CC(C)(c1ccc(Oc2nc(-n3nccn3)ccc2F)cc1)c1ccc(O[C@H]2C[C@H](Nc3ccc4c(c3)C(=O)N(C3CCC(=O)NC3=O)C4=O)C2)cc1 (stereo partly drawn) [Example 320] | 11 to 100 |
| CC(C)(c1ccc(OCCCNc2ccc3c(c2)C(=O)N(C2CCC(=O)NC2=O)C3=O)cc1)c1ccc(OCc2ccnc(N3CCCC3)n2)cc1 (stereo not drawn) [Example 440, 2-(2,6-dioxopiperidin-3-yl)-5-((3-(4-(2-(4-((2-(pyrrolidin-1-yl)pyrimidin-4-yl)methoxy)phenyl)propan-2-yl)phenoxy)propyl)amino)isoindolin-1,3-dione] | 11 to 100 |
| O=C1CCC(N2C(=O)c3ccc(N[C@H]4C[C@H](Oc5ccc(Cc6ccc(Oc7cnc(-n8ccnn8)nc7)cc6)cc5)C4)cc3C2=O)C(=O)N1 (stereo partly drawn) [Example 520] | 11 to 100 |
| CC(=O)c1cc(COc2ccc(C(C)(C)c3ccc(OCCCCCCCCOCCCCNc4ccc5c(c4)C(=O)N(C4CCC(=O)NC4=O)C5=O)cc3)cc2)ccn1 (stereo not drawn) [Example 347, 5-((4-((8-(4-(2-(4-((2-acetylpyridin-4-yl)methoxy)phenyl)isopropan-2-yl)phenoxy)octyl)oxy)butyl)amino)-2-(2,6-dioxopiperidin-3-yl)isoindolin-1,3-dione] | 1000 to 5000 |
| CC(C)[C@@H](COc1ccc(C(C)(C)c2ccc(OCc3ccnc(N4CC5(COC5)C4)n3)cc2)cc1)Nc1ccc2c(c1)C(=O)N(C1CCC(=O)NC1=O)C2=O (stereo partly drawn) [Example 150] | 11 to 100 |
| CC(O)c1cnc(Oc2ccc(C(C)(C)c3ccc(O[C@H]4C[C@@H](Nc5ccc6c(c5)C(=O)N(C5CCC(=O)NC5=O)C6=O)C4)cc3)cc2)cn1 (stereo partly drawn) [Example 129] | 11 to 100 |
| CC(C)(c1ccc(Oc2ccnc(-n3nccn3)n2)cc1)c1ccc(O[C@H]2C[C@H](Nc3ccc4c(c3)C(=O)N(C3CCC(=O)NC3=O)C4=O)C2)cc1 (stereo partly drawn) [Example 469, 5-(((1r,3r)-3-(4-(2-(4-((2-(2H-1,2,3-triazol-2-yl)pyrimidin-4-yl)oxy)phenyl)propan-2-yl)phenoxy)cyclobutyl)amino)-2-(2,6-dioxopiperidin-3-yl)isoindolin-1,3-dione] | 11 to 100 |
| Cc1nc(-c2ccc(Oc3ccc(C(C)(C)c4ccc(O[C@H]5C[C@H](Nc6ccc7c(c6)C(=O)N(C6CCC(=O)NC6=O)C7=O)C5)cc4)cc3)cc2)no1 (stereo partly drawn) [Example 332, 2-(2,6-dioxopiperidin-3-yl)-5-((1r,3r)-3-(4-(2-(4-(4-(5-methyl-1,2,4-oxadiazol-3-yl)phenoxy)phenyl)propan-2-yl)phenoxy)cyclobutyl)aminoisoindolin-1,3-dione] | 11 to 100 |

Same assay, conditions: AR-v7 degradation in 22RV1 cells, 48 h, numeric values

| SMILES | DC50 [nM] |
| --- | --- |
| CC(C)(c1ccc(OCCCCCCCOCCCOCCCNc2ccc3c(c2)C(=O)N(C2CCC(=O)NC2=O)C3=O)cc1)c1ccc(OCc2ccnc(NS(C)(=O)=O)n2)cc1 (stereo not drawn) [Example 24] | > 10000 |
| CC(C)(c1ccc(OCCCCCCCCOCCCCNc2ccc3c(c2)C(=O)N(C2CCC(=O)NC2=O)C3=O)cc1)c1ccc(N2CCc3cnc(N4CC5(COC5)C4)nc3C2)cc1 (stereo not drawn) [Example 65, 5-((4-((8-(4-(2-(4-(2-(2-oxa-6-azaspiro[3.3]heptan-6-yl)-5,8-dihydropyrido[3,4-d]pyrimidin-7(6H)-yl)phenyl)propan-2-yl)phenoxy)octyl)oxy)butyl)amino)-2-(2,6-dioxopiperidin-3-yl)isoindolin-1,3-dione] | > 10000 |
| CC(=O)c1nccc(COc2ccc(C(C)(C)c3ccc(OC4CCCN(c5ccc6c(c5)C(=O)N(C5CCC(=O)NC5=O)C6=O)C4)cc3)cc2)n1 (stereo not drawn) [Example 107] | > 10000 |
| CC(C)(c1ccc(OCCCCCCOCCCCN2CCN(c3ccc4c(c3)C(=O)N(C3CCC(=O)NC3=O)C4=O)CC2)cc1)c1ccc(OCc2ccnc(NS(C)(=O)=O)n2)cc1 (stereo not drawn) [Example 8, N-(4-((4-(2-(4-((6-(4-(4-(2-(2,6-dioxopiperidin-3-yl)-1,3-dioxoisoindolin-5-yl)piperazin-1-yl)butoxy)hexyl)oxy)phenyl)propan-2-yl)phenoxy)methyl)pyrimidin-2-yl)methanesulfonamide] | 5270 |
| CC(C)(c1ccc(OCCCOCCCN2CCC3(CC2)CN(c2ccc4c(c2)C(=O)N(C2CCC(=O)NC2=O)C4=O)C3)cc1)c1ccc(OCc2ccnc(NS(C)(=O)=O)n2)cc1 (stereo not drawn) [Example 4] | > 10000 |
